In paper PMC11132046, “A Natural Peptide from A Traditional Chinese Medicine Has the Potential to Treat Chronic Atrophic Gastritis by Activating Gastric Stem Cells” (Advanced Science, 2024):
“Also recorded” adds a separate entry of the source. Where no end group is shown, it is not given here.

Columns and labels:
gastric organoids = assay: Inhibition of PEEPA-induced organoid growth by pathway inhibitors; assay type: cell-based, mouse
Protocol: For JAK‐Stat, MEK1 and EGFR inhibition, organoid cultures were respectively treated with Ruxotilinib (15 µM, Selleck, #s1039), U0126 (20 µM, Selleck, #s1102) and Afatinib (1 µM, Selleck, #s1011). The inhibitor was prepared following the manufacturer's instruction.

AG model mice = assay: AG mouse model (MNNG + ranitidine): histology and histopathology scoring; assay type: in vivo; conditions: comparison Moludan, Sijunzi decoction, berberine
Protocol: (§1) For establishment of a mouse model of atrophic gastritis, normal mice had free access to water containing N‐methyl‐N‐nitro‐N‐nitrosoguanidine (MNNG, […]). Moreover, the mice were given 400 µL of ranitidine (8 mg mL^−1) in solution at a dose of 150 mg kg^−1 daily. After 20 weeks, the mice were euthanized and examined.
(§2) Periplaneta americana insects were cultivated in an industrialized facility and the ethanol extract of (PEEPA) was prepared with a standardized method, which was dissolved in the vehicle containing water, 15% glycerol and 0.2% potassium sorbate. PEEPA‐derived peptides (PEEPA‐P5) were dissolved to 500 ng mL^−1 in water for in vitro experiments and to 1 mg mL^−1 for in vivo experiments. Mice were administrated with PEEPA, PEEPA‐P5, or vehicle through oral gavage daily for 2 or 4 weeks.
For murine gastritis samples, histologic scoring was blindly done following standard criteria. In brief, the oxyntic atrophy scoring was determined by the absence of parietal and chief cells in mucosa and the gastritis histology index has three categories, inflammation, epithelial defects, and oxyntic atrophy. A larger score represents a more severe gastritis.

[1] = cited from earlier work
Text: Herein, by analyzing AG model mice and patient samples with genetic tracing, organoid cultures, and RNA‐seq, we uncovered GSC defects as a critical AG pathogenic factor, associated with decreased signaling of EGF, an important GSC niche molecule. […] We wanted to test their therapeutic effect on AG model mice generated with n‐methyl‐n‐nitro‐n‐nitrosoguanidine (MNNG) and ranitidine (Figure 1A).

[2] = no reference given; cited from earlier work
Text: Moreover, PEEPA‐P5 has unique properties compared to EGF. […] Third, PEEPA‐induced ERK and Stat1 activation is much slower.

[3] = tested on: EGFR-Stat1 and EGFR-ERK signaling in AG organoids; assay: Western blot of EGFR signaling in AG patient-derived gastric organoids; assay type: cell-based, human; conditions: organoids from AG patients
Protocol: (§3) The gastric antrum of mice was harvested and the middle part was cut open. After cleaning in PBS containing 1% pencillin‐streptomycin (PS) for several times, the food residue and other impurities were completely removed. The gastric gland epithelial layer was separated from the muscle layer with forceps under the stereoscope. The epithelial layer was cut into 2.5 mm long fragments, which were digested in 2.5 mM EDTA/DPBS at 4 °C for 1 h. The gland fragments were filtered through a 70 µm strainer (Thermo Fisher), washed with cold DPBS buffer, and centrifuged at 1000 rpm for 5 min. Afterward, the gland sediments were suspended in growth factor reduced phenol‐free Matrigel (Corning) and seeded into 48‐well plate. […] At different time points (Day 1, 3, 5, and 7), the organoids were observed under inverted microscope, and the organ diameter and bud numbers were measured to determine the levels of cell proliferation. […]
(§4) results were visualized and quantified using the FluoChem M system (ProteinSimple).
(§5) Cell culture and cell viability assay: Human gastric normal epithelial cell line GES-1 was cultured in DMEM medium containing 10% fetal bovine serum and 1% pencillin-streptomycin at 37℃ with 5% CO2. […] After 3 days, substrate tetrazolium salt was added to each sample and incubated at 37℃ for 2 hrs and the absorbance at 450 nm was measured using BioTeck. […]

[4] = tested on: EGFR, ERKs, Stat1, Akt1, Stat3 in GES-1 cells; assay: Western blot of EGFR downstream signaling in GES-1 cells; assay type: cell-based, human; conditions: EGF 0.4 µM
Protocol: Western Blot: Tissue proteins were isolated using T-PER Tissue Protein Extraction Reagent (Thermo Fisher, #78510). Proteins of cultured cells were extracted using RIPA lysis buffer supplemented with 1 mM PMSF, […] pepstatin, leupeptin, and aprotonin. Equal amounts of total proteins were subjected to SDS-PAGE and transferred to PVDF membrane (Millipore). The primary antibodies include: p-Stat1 […]
as §4
Cell culture and cell viability assay: Human gastric normal epithelial cell line GES-1 was cultured in DMEM medium containing 10% fetal bovine serum and 1% pencillin- […]
streptomycin at 37℃ with 5% CO2. […]
(§6) TRIzol reagent. cDNA was reverse transcribed from 500 ng RNA by PrimeScript RT […]
(§7) Light Cycler 480. The sequences of primers are as follows: Gastrin-F: 5’- GGACAGGGACCAATGAGG-3’; Gastrin-R: 5’-
(§8) -3’; SST-F: 5’-ACCGGGAAAAGGAACTGG-3’;
(§9) SST-R: 5’-TTGCTGGGTTCGAGTTGGC-3’; Muc5ac-F: 5’-
(§10) AGCCTAGCCACCACCTTAG-3’; TFF1-F: 5’-[…]-3’;
(§11) TFF1-R: 5’-[…]-3’; TFF2-F: 5’- TGCTCTGGTAGAGGGCGAG-3’; TFF2-R: 5’-CGAGCTAGAGTCAAAGAG-3’;
(§12) Spdef-F: 5’-GGAGGAGACTCTTCTGAAG-3’; Spdef-R: 5’-
(§13) -3’. For human genes, hPCNA-F: 5’-
(§14) CAGCGGTAGGTGTCGAAGC-3’; hTFF2-F: 5’-[…]-
(§15) 3’; hTTF2-R: 5’-[…]-3’; hMuc5ac-F: 5’-
(§16) GCGCACAGAGGATGACAGT-3’; hATP4b-F: 5’-[…]-
(§17) 3’; hATP4b-R: 5’-[…]-3’; hGastrin-F: 5’-
GCCCCTGTACCTAAGGGTG-3’; hAxin2-F: 5’- […]

[5] = tested on: EGFR-Stat1 and EGFR-ERK signaling in NAG organoids; assay: Western blot of EGFR signaling in NAG patient-derived gastric organoids; assay type: cell-based, human; conditions: organoids from NAG patients
Protocol: as §3, §4, §5

GES-1 cells = assay: Cell viability assay (CCK-8); assay type: cell-based, human
Protocol: Cell culture and cell viability assay: Human gastric normal epithelial cell line GES-1 was cultured in DMEM medium containing 10% fetal bovine serum and 1% pencillin-streptomycin at 37℃ with 5% CO2. For cell viability assay, Cell Counting Kit-8 (CCK-8) was purchased from KeyGEN BioTECH Corp., Ltd. The cells were cultured in 96-wells plate and PEEPA-P5 was added in each well with different concentrations. After 3 days, substrate tetrazolium salt was added to each sample and incubated at 37℃ for 2 hrs and the absorbance at 450 nm was measured using BioTeck. […]
as §6, §7, §8, §9, §10, §11, §12, §13, §14, §15, §16, §17
GCCCCTGTACCTAAGGGTG-3’; hAxin2-F: 5’-
RNA sequencing: The gastric muscle layer was removed under the stereoscope and the […]

[6] = tested on: liver and kidney of AG model mice; assay: Body weight and liver/kidney histology in AG model mice; assay type: in vivo, mouse; conditions: PEEPA-P5; H&E, representative of three mice
Protocol: as §1, §2

[7] = Retention / stability in murine stomach (P5-fluorescein); assay type: in vivo

N#CC[C@H](C1CCCC1)n1cc(-c2ncnc3[nH]ccc23)cn1 [Ruxo, ruxolitinib]
effect on PEEPA-induced organoid growth and differentiation (gastric organoids; Jak inhibitor Ruxo 15 µM, n=6 (growth), n=3 (qPCR)): impeded PEEPA‐induced organoid growth and differentiation | expression of differentiation markers in gastric organoids (gastric organoids; Ruxo, qPCR, mean ± SD, n=3): suppressed the expression of differentiation markers

N#CC(=C(/N)Sc1ccccc1N)/C(C#N)=C(/N)Sc1ccccc1N [U0126]
effect on PEEPA-induced organoid growth (gastric organoids; ERK inhibitor U0126 20 µM, mean ± SD, n=3): suppressed PEEPA‐induced organoid growth

CN(C)C/C=C/C(=O)Nc1cc2c(Nc3ccc(F)c(Cl)c3)ncnc2cc1O[C@H]1CCOC1 [afatinib]
effect on PEEPA-induced organoid growth (gastric organoids; EGFR inhibitor afatinib 1 µM, mean ± SD, n=3): blocked the pro‐growth effect of PEEPA on gastric organoids

COc1ccc2cc3[n+](cc2c1OC)CCc1cc2c(cc1-3)OCO2 [berberine, reference compound]
restoration of gland structure, gastritis histology index and oxyntic atrophic score (compared with PEEPA) (AG model mice): only PEEPA restored the gastric gland structure | reported therapeutic effects on AG ([1]; ref [16]): therapeutic effects on AG

EGF: GSC niche molecule; EGF protein used as comparison
stability in acidic stomach environment [2]: instability of EGF in acidic stomach environment | sensitivity to EGF, AG organoids [3]: organoids from AG patients are insensitive | secretion of defensin 3 ([1]; ref [15]): promotes secretion of defensin 3 | downstream signaling activated by EGF [4]: activates ERK, Akt1, and Stat1/3 signaling | sensitivity to EGF, NAG organoids [5]: organoids from NAG patients are highly sensitive to EGF

PAAEPVPLVKQD [PEEPA-P5]
IC50 (GES-1 cells): 284 µM | toxicity towards GES-1 cells (GES-1 cells; CCK-8, 3 days): low cell toxicity | effect on liver or kidney [6]: little effect on the kidney or liver structure; also recorded: no obvious effect on the liver or kidney | stability in the acidic environment of the stomach ([7]; inferred from retention of P5-fluorescein in mouse stomach): relatively stable in the acidic environment of the stomach | retention time in the stomach ([7]; mouse, oral gavage, measured using P5-fluorescein (PEEPA-P5-FITC), fluorescence at different time points): 3.09 h
